Assay results: ChEMBL document CHEMBL1129084, “Structure-activity relationships for macrocyclic peptidomimetic inhibitors of HIV-1 protease” (Bioorg Med Chem Lett, 1996)
pKi: −log10 of the molar value. Starred links: 1 amine or outer side, 2 acyl side, 3 side chain; linkers in the order of their positions; H or OH if unused. Non-standard residues stand in square brackets, D forms with d. Residues, ends and D or L forms follow the SMILES beside them. Phe(ψ(S)CH(OH)CH2N)Pro = O=C([C@@H]1CCCN1C[C@H](O)[C@H](Cc1ccccc1)N[*:1])[*:2]; Pheψ(R-CH(OH)CH2N)Pro = O=C([C@@H]1CCCN1C[C@@H](O)[C@H](Cc1ccccc1)N[*:1])[*:2]

Target: Human immunodeficiency virus type 1 protease (Human immunodeficiency virus 1, UniProt Q72874)

| Structure (SMILES) | pKi |
| --- | --- |
| CC(C)(C)NC(=O)CN(Cc1ccccc1)C[C@@H](O)[C@H]1Cc2ccc(cc2)OCCCC(=O)N[C@@H](CC(N)=O)C(=O)N1 | 6.36 |
| CC(C)(C)NC(=O)CN(Cc1ccccc1)C[C@H](O)[C@H]1Cc2ccc(cc2)OCCCC(=O)N[C@@H](CC(N)=O)C(=O)N1 | 4.87 |
| CC(C)N(C(=O)[C@@H]1CCCN1C[C@@H](O)[C@H]1Cc2ccc(cc2)OCCCC(=O)NC(CC(N)=O)C(=O)N1)C(C)C (some centres not stated) | 4.51 |
| CC(C)CN(CC(=O)NC(C)(C)C)C[C@H](O)[C@H]1Cc2ccc(cc2)OCCCC(=O)N[C@@H](CC(N)=O)C(=O)N1 | 6.42 |
| CC(C)N(C(=O)[C@@H]1CCCN1C[C@H](O)[C@H]1Cc2ccc(cc2)OCCCC(=O)NC(CC(N)=O)C(=O)N1)C(C)C (some centres not stated) | 4.07 |
| CC[C@H](C)[C@H](NC(=O)[C@@H]1CCCN1C[C@H](O)[C@H]1Cc2ccc(cc2)OCC(=O)NCC(=O)N[C@@H](CC(N)=O)C(=O)N1)C(=O)N[C@H](C(N)=O)C(C)C | 7.96 |
| CC(C)[C@@H]1NC(=O)CCCCOc2ccc(cc2)C[C@H]([C@H](O)CN2CCCC[C@H]2C(=O)NC(C)(C)C)NC1=O | 7.77 |
| CC[C@H](C)[C@H](NC(=O)[C@@H]1CCCN1C[C@H](O)[C@@H]1CSSC[C@@H](NC(C)=O)C(=O)NCC(=O)N[C@@H](CC(N)=O)C(=O)N1)C(=O)N[C@H](C(N)=O)C(C)C | 6.60 |
| NC(=O)CC1NC(=O)CCCOc2ccc(cc2)C[C@H]([C@@H](O)CN2CCC[C@H]2C(N)=O)NC1=O (some centres not stated) | 4.44 |
| CC[C@H](C)[C@H](NC(=O)[C@@H]1CCCN1C[C@H](O)[C@H](Cc1ccccc1)NC(=O)[C@H](CC(N)=O)NC(=O)[C@H](CC(C)C)NC(C)=O)C(=O)N[C@H](C(N)=O)C(C)C (Ac-LN[Phe(ψ(S)CH(OH)CH2N)Pro]IV-NH2) | 8.52 |
| NC(=O)CC1NC(=O)CCCOc2ccc(cc2)C[C@H]([C@H](O)CN2CCC[C@H]2C(N)=O)NC1=O (some centres not stated) | 4.80 |
| CC[C@H](C)[C@H](NC(=O)[C@@H]1CCCN1C[C@H](O)[C@H]1Cc2ccc(cc2)OCCCCC(=O)NC(CC(N)=O)C(=O)N1)C(=O)N[C@H](C(N)=O)C(C)C (some centres not stated) | 8.10 |
| CC(C)(C)NC(=O)[C@H](Cc1ccccc1)NCC(O)[C@@H]1Cc2ccc(cc2)OCCCC(=O)NC(CC(N)=O)C(=O)N1 (mixture of isomers) | 4.99 |
| CC[C@H](C)[C@H](NC(=O)[C@@H]1CCCN1C[C@@H](O)[C@H](Cc1ccccc1)NC(=O)[C@H](CC(N)=O)NC(=O)[C@H](CC(C)C)NC(C)=O)C(=O)N[C@H](C(N)=O)C(C)C (Ac-LN[Pheψ(R-CH(OH)CH2N)Pro]IV-NH2) | 7.74 |
| CC(C)CN(CC(=O)NC(C)(C)C)C[C@@H](O)[C@H]1Cc2ccc(cc2)OCCCC(=O)N[C@@H](CC(N)=O)C(=O)N1 | 6.60 |
| CC[C@H](C)[C@H](NC(=O)[C@@H]1CCCN1C[C@@H](O)[C@H]1Cc2ccc(cc2)OCC(=O)NCC(=O)N[C@@H](CC(N)=O)C(=O)N1)C(=O)N[C@H](C(N)=O)C(C)C | 6.70 |
| CC[C@H](C)[C@H](NC(=O)[C@@H]1CCCN1C[C@H](O)[C@H]1Cc2ccc(cc2)OCC(=O)N[C@@H](Cc2ccc(O)cc2)C(=O)N[C@@H](CC(N)=O)C(=O)N1)C(=O)N[C@H](C(N)=O)C(C)C | 7.96 |
| CC[C@H](C)[C@H](NC(=O)[C@@H]1CCCN1CC(O)[C@H]1Cc2ccc(cc2)OCC(=O)N[C@H](CCC(N)=O)C(=O)N[C@@H](CC(N)=O)C(=O)N1)C(=O)N[C@H](C(N)=O)C(C)C (mixture of isomers) | 8.40 |
| CC(C)(C)NC(=O)[C@@H]1CCCN1C[C@H](O)[C@H]1Cc2ccc(cc2)OCCCC(=O)NC(CC(N)=O)C(=O)N1 (some centres not stated) | 6.84 |
| CC[C@H](C)[C@H](NC(=O)[C@@H]1CCCN1C[C@H](O)[C@H]1Cc2ccc(cc2)OCCCC(=O)NC(CC(N)=O)C(=O)N1)C(N)=O (some centres not stated) | 6.60 |
| CC(C)(C)NC(=O)[C@@H]1CCCN1C[C@@H](O)[C@H]1Cc2ccc(cc2)OCCCC(=O)NC(CC(N)=O)C(=O)N1 (some centres not stated) | 7.24 |
| CC[C@@H](C)[C@@H]1NC(=O)[C@@H](NC[C@@H](O)[C@@H]2Cc3ccc(cc3)OCCCCC(=O)N[C@@H](C(C)C)C(=O)N2)Cc2ccc(cc2)OCCCNC1=O | 8.52 |
| CC[C@H](C)[C@H](NC(=O)[C@@H]1CCCN1C[C@@H](O)[C@H]1Cc2ccc(cc2)OCC(=O)N[C@@H](Cc2ccc(O)cc2)C(=O)N[C@@H](CC(N)=O)C(=O)N1)C(=O)N[C@H](C(N)=O)C(C)C | 6.78 |
| CC[C@H](C)[C@H](NC(=O)[C@@H]1CCCN1C[C@@H](O)[C@H]1Cc2ccc(cc2)OCCCC(=O)NC(CC(N)=O)C(=O)N1)C(N)=O (some centres not stated) | 5.55 |
| CC[C@H](C)[C@H](NC(=O)[C@@H]1CCCN1C[C@@H](O)[C@@H]1CSSC[C@@H](NC(C)=O)C(=O)NCC(=O)N[C@@H](CC(N)=O)C(=O)N1)C(=O)N[C@H](C(N)=O)C(C)C | 4.44 |
| CC[C@H](C)[C@H](NC(=O)[C@@H]1CCCN1C[C@@H](O)[C@H]1Cc2ccc(cc2)OCCCCC(=O)NC(CC(N)=O)C(=O)N1)C(=O)N[C@H](C(N)=O)C(C)C (some centres not stated) | 7.13 |
| CC(C)[C@@H]1NC(=O)CCCCCOc2ccc(cc2)C[C@H]([C@H](O)CN2CCCC[C@H]2C(=O)NC(C)(C)C)NC1=O | 7.30 |
